Peptide text beside a SMILES is read from it. * marks the point of attachment. Tos = Cc1ccc(S(=O)(=O)*)cc1
Biological target: T1, μ-calpain (Homo sapiens, UniProt P07384)
T1 construct: purchased Nakalai Tesque
T1 sequence (P07384 1-714): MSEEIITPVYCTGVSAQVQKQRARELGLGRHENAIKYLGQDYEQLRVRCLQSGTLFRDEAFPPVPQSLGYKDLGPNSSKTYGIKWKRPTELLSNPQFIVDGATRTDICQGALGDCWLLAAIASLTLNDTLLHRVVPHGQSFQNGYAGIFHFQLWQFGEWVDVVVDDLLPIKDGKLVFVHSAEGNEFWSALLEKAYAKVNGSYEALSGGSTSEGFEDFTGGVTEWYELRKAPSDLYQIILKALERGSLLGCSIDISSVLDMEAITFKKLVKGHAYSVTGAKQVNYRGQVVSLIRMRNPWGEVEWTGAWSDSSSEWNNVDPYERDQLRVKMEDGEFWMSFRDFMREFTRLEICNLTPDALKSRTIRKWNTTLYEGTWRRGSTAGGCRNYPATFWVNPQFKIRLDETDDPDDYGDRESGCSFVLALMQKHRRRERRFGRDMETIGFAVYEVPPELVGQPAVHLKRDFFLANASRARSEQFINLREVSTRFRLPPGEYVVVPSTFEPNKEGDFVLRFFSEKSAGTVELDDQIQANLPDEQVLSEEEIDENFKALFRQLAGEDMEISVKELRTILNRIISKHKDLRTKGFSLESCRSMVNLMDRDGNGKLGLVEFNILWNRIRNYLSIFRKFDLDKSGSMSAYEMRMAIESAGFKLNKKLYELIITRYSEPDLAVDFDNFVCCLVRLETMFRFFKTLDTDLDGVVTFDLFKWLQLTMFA
T1 sequence (P04632 1-268 partner): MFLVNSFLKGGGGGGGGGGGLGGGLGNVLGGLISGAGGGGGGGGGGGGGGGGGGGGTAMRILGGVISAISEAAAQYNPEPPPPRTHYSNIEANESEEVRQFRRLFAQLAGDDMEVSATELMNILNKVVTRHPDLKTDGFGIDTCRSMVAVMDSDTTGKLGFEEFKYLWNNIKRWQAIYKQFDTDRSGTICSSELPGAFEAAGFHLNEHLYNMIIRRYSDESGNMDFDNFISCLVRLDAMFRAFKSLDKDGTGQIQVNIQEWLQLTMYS
Experiment: μ-Calpain-inhibitory activity (casein substrate)
Format: biochemical
Settings: 60 minutes at 30° C., pH 7.4, 4 mM calcium chloride
Experimental: Thus, to a solution containing 0.5 mg/ml casein, 50 mM Tris-HCl (pH 7.4), 20 mM dithiothreitol, and 4 mM calcium chloride was added 2.5 μl of a dimethyl sulfoxide solution containing a varying concentration of the test drug as well as 0.03 unit of μcalpain to initiate the reaction. The final liquid volume was 250 μl. After 60 minutes of reaction at 30° C., 100 μl of the reaction mixture was transferred to another vessel, to which 50 μl of purified water and 100 μl of 50% Coumassie brilliant blue solution were added. […] As a control, 2.5 μl of dimethyl sulfoxide not containing the test drug was added and the mixture was treated in the same manner as above. […] Similarly, the value found by adding 0.2 mM EDTA in lieu of 4 mM aqueous calcium chloride solution was used as the blank value. […] [formula]

Row | SMILES | IC50 [µM]
1 | CC(C)C[C@H](NC(=O)[C@H]1O[C@@H]1C(=O)O)C(=O)N1CCN(c2ccccc2)CC1 [Compound 14, (2s,3s)-3-[[[[(1s)-1-[(4-phenyl-1-piperazinyl)carbonyl]-3-methyl]butyl]amino]carbonyl]oxiranecarboxylic acid] | 0.78
2 | CC(C)C[C@H](NC(=O)[C@H]1O[C@@H]1C(=O)O)C(=O)N1CCN(S(=O)(=O)N(C)C)CC1 [Compound 15, (2s,3s)-3-[[[[(1s)-1-[(4-dimethylsulfamoyl-1-piperazinyl)carbonyl]-3-methyl]butyl]amino]carbonyl]oxiranecarboxylic acid] | 1.1
3 | CC(C)C[C@H](NC(=O)[C@H]1O[C@@H]1C(=O)O)C(=O)N1CCN(c2cccc(Cl)c2)CC1 [Compound 18, (2s,3s)-3-[[[[(1s)-1-[[4-(3-chlorophenyl)-1-piperazinyl]carbonyl]-3-methyl]butyl]amino]carbonyl]oxiranecarboxylic acid] | 0.63
4 | CC(C)C[C@H](NC(=O)[C@H]1O[C@@H]1C(=O)O)C(=O)N1CCN(c2ccc(Cl)cc2)CC1 [Compound 19, (2s,3s)-3-[[[[(1s)-1-[[4-(4-chlorophenyl)-1-piperazinyl]carbonyl]-3-methyl]butyl]amino]carbonyl]oxiranecarboxylic acid] | 0.49
5 | CC(C)[C@H](NC(=O)[C@H]1O[C@@H]1C(=O)O)C(=O)N1CCN(c2ccccc2Cl)CC1 [Compound 21, (2s,3s)-3-[[[[(1s)-1-[[4-(2-chlorophenyl)-1-piperazinyl]carbonyl]-2-methyl]propyl]amino]carbonyl]oxiranecarboxylic acid] | 0.95
6 | C[C@H](NC(=O)[C@H]1O[C@@H]1C(=O)O)C(=O)N1CCN(c2ccccc2Cl)CC1 [Compound 23, (2s,3s)-3-[[[(1s)-1-[[4-(2-chlorophenyl)-1-piperazinyl]carbonyl]ethyl]amino]carbonyl]oxiranecarboxylic acid] | 5.1
7 | O=C(O)[C@H]1O[C@@H]1C(=O)NCCC(=O)N1CCN(c2ccccc2Cl)CC1 [Compound 25, (2s,3s)-3-[[[2-[[4-(2-chlorophenyl)-1-piperazinyl]carbonyl]ethyl]amino]carbonyl]oxiranecarboxylic acid] | 41
8 | O=C(O)[C@H]1O[C@@H]1C(=O)N1CCC[C@H]1C(=O)N1CCN(c2ccccc2Cl)CC1 [Compound 27, (2s,3s)-3-[[(2s)-2-[[4-(2-chloro-phenyl)-1-piperazinyl]carbonyl]-1-pyrrolidinyl]carbonyl]oxiranecarboxylic acid] | 2400
9 | CSCC[C@H](NC(=O)[C@H]1O[C@@H]1C(=O)O)C(=O)N1CCN(c2ccccc2Cl)CC1 [Compound 29, (2s,3s)-3-[[[[(1s)-1-[[4-(2-chlorophenyl)-1-piperazinyl]carbonyl]-3-methylthio]propyl]amino]carbonyl]oxiranecarboxylic acid] | 0.6
10 | NC(=O)CC[C@H](NC(=O)[C@H]1O[C@@H]1C(=O)O)C(=O)N1CCN(c2ccccc2Cl)CC1 [Compound 30, (2s,3s)-3-[[[[(1s)-1-[[4-(2-chlorophenyl)-1-piperazinyl]carbonyl]-3-carbamoyl]propyl]amino]carbonyl]oxiranecarboxylic acid] | 6
11 | O=C(O)[C@H]1O[C@@H]1C(=O)NC1(C(=O)N2CCN(c3ccc(F)cc3)CC2)CCCC1 [Compound 31, (2s,3s)-3-[[[(1s)-1-[[4-(4-fluorophenyl)-1-piperazinyl]carbonyl]-1-cyclopentyl]amino]carbonyl]oxiranecarboxylic acid] | 150
12 | Cc1ccc(S(=O)(=O)N2CCN(C(=O)[C@H](CC(C)C)NC(=O)[C@H]3O[C@@H]3C(=O)NO)CC2)cc1 [Compound 33, (2s,3s)-3-[[[[(1s)-1-[[4-(4-methylphenylsulfonyl)-1-piperazinyl]carbonyl]-3-methyl]butyl]amino]carbonyl]oxiranecarbohydroxamic acid] | 1.9
13 | CC(C)C[C@@H](C=O)NC(=O)[C@@H](NS(=O)(=O)c1ccc2ccccc2c1)C(C)C [Compound 34, N-(2-naphthalenesulfonyl)-L-valyl-L-leucinal] | 0.01
14 | CC(C)C[C@@H](C=O)NC(=O)[C@@H](NS(=O)(=O)c1ccc(Cl)cc1)C(C)C [Compound 36, N-(4-chlorophenylsulfonyl)-L-valyl-L-leucinal] | 0.031
15 | Cc1ccc(S(=O)(=O)N[C@H](C(=O)N[C@H](C=O)CC(C)C)C(C)C)cc1 [Compound 37, N-(4-methylphenylsulfonyl)-L-valyl-L-leucinal] (Tos-Val-Leu-aldehyde) | 0.028
16 | CC(C)C[C@@H](C=O)NC(=O)[C@@H](NS(=O)(=O)c1ccc2ccccc2c1)C(C)(C)C [Compound 38, N-(2-naphthalenesulfonyl)-L-tert-leucyl-L-leucinal] | 6.1
17 | CCCC[C@H](NS(=O)(=O)c1ccc(F)cc1)C(=O)N[C@H](C=O)CC(C)C [Compound 40, N-(4-fluorophenylsulfonyl)-L-norleucyl-L-leucinal] | 0.26
18 | CCC[C@H](NS(=O)(=O)c1ccc(F)cc1)C(=O)N[C@H](C=O)CC(C)C [Compound 41, N-(4-fluorophenylsulfonyl)-L-norvalyl-L-leucinal] | 0.13
19 | CC(C)(C)[C@H](NS(=O)(=O)c1ccc2ccccc2c1)C(=O)N[C@H](C=O)Cc1ccccc1 [Compound 42, N-(2-naphthalenesulfonyl)-L-tert-leucyl-L-phenylalaninal] | 3.2
20 | CC(C)[C@H](NS(=O)(=O)c1ccc(F)cc1)C(=O)N[C@H](C=O)Cc1ccccc1 [Compound 43, N-(4-fluorophenylsulfonyl)-L-valyl-L-phenylalaninal] | 0.027
21 | CC(C)[C@H](NS(=O)(=O)c1ccc2ccccc2c1)C(=O)N[C@H](C=O)Cc1ccccc1 [Compound 44, N-(2-naphthalenesulfonyl)-L-valyl-L-phenylalaninal] | 0.014
22 | CC(C)[C@H](NS(=O)(=O)c1ccc(Cl)cc1)C(=O)N[C@H](C=O)Cc1ccccc1 [Compound 45, N-(4-chlorophenylsulfonyl)-L-valyl-L-phenylalaninal] | 0.014
23 | Cc1ccc(S(=O)(=O)N[C@H](C(=O)N[C@H](C=O)Cc2ccccc2)C(C)C)cc1 [Compound 46, N-(4-methylphenylsulfonyl)-L-valyl-L-phenylalaninal] (Tos-Val-Phe-aldehyde) | 0.018
24 | O=C[C@H](Cc1ccccc1)NC(=O)C1(NS(=O)(=O)c2ccc3ccccc3c2)CCCCC1 [Compound 47] | 0.2
25 | CC(C)[C@H](NS(=O)(=O)c1ccc(Cl)cc1)C(=O)N[C@H](C=O)Cc1c[nH]c2ccccc12 [Compound 48, N-(4-chlorophenylsulfonyl)-L-valyl-L-tryptophanal] | 0.013
26 | CC(C)[C@H](NS(=O)(=O)c1ccc(F)cc1)C(=O)N[C@H](C=O)Cc1c[nH]c2ccccc12 [Compound 49, N-(4-fluorophenylsulfonyl)-L-valyl-L-tryptophanal] | 0.023
27 | O=C[C@H](Cc1c[nH]c2ccccc12)NC(=O)C1(NS(=O)(=O)c2ccc3ccccc3c2)CCCCC1 [Compound 50, 1-(2-naphthalenesulfonylamino)cyclohexanecarbonyl-L-tryptophanal] | 0.36

Same assay, conditions: read-out: Calpain 50% inhibitory concentration (IC50); 60 minutes at 30° C., pH 7.4, 4 mM calcium chloride

Row | SMILES | IC50 [µM]
28 | CCOC(=O)[C@H]1O[C@@H]1C(=O)N[C@@H](CC(C)C)C(=O)N1CCN(c2ccc(F)cc2)CC1 [Compound 3, ethyl (2s,3s)-3-[[[[(1s)-1-[[4-(4-fluorophenyl)-1-piperazinyl]carbonyl]-3-methyl]butyl]amino]carbonyl]oxiranecarboxylate] | 47
29 | COc1ccc(N2CCN(C(=O)[C@H](CC(C)C)NC(=O)[C@H]3O[C@@H]3C(=O)O)CC2)cc1 [Compound 20, (2s,3s)-3-[[[[(1s)-1-[[4-(4-methoxyphenyl)-1-piperazinyl]carbonyl]-3-methyl]butyl]amino]carbonyl]oxiranecarboxylic acid] | 1.2
30 | CC(=O)NCSC[C@@H](NC(=O)[C@H]1O[C@@H]1C(=O)O)C(=O)N1CCN(c2ccccc2Cl)CC1 [Compound 28, (2s,3s)-3-[[[[(1s)1-[[4-(2-chlorophenyl)-1-piperazinyl]carbonyl]-2-acetylaminomethylthio]-ethyl]amino]carbonyl]oxiranecarboxylic acid] | 3.9

Reference: patent US6551999B1, “Angiogenesis inhibitor” (Senju Pharmaceutical Co., Ltd., priority 1995, dated 2003)
